Tested on: rat insulin-I gene promoter
Test: On-line monitoring of insulin promoter-driven DsRed/GFP expression (prIns1.DsRed) in transfected HIT-T15 cells and islet cells
Format: cell-based, hamster (HIT-T15), rat (islet cells)
Settings: for effect of inhibitor on insulin-stimulated insulin gene transcription / insulin promoter activity: 25 μM LY294002, 10 nM rapamycin, 400 nM AC, 100 μM HNMPA-(AM)3
Text: Construction of prIns1.GFP has been described earlier (Leibiger et al., 1998a). Vector prIns1.DsRed was generated by exchanging the EGFP-expression cassette versus the DsRed-expression cassette obtained from pDsRed1-1 (Clontech). Plasmid prβGK.GFP (i.e. prβGK-278.GFP) was generated by exchanging the CAT-SV40pA-expression cassette of prβGK-278.CAT (Leibiger et al., 1994a) versus the EGFP-bGHpA-expression cassette obtained from pRcCMVI.GFP (Moede et al., 1999). […] All vector constructions were verified by DNA sequence analysis. Constructs for expression of the human Insulin Receptor A and B types, pCMVHIR(A) and pCMVHIR(B) and the control plasmid pCMVstop were kindly provided by Dr. A. Ullrich (Max-Planck-Institute for Biochemistry, Martinsried, Germany). Expression constructs pCMV5.PKBα, pCMV5.PKBαΔ308/437, pCMV5.PDK1 and pCMV5.PDK1-antisense were kindly provided by Drs. P. Cohen and D. R. Alessi (MRC Phosphorylation Unit, University of Dundee, UK).
Insulin-producing HIT-T15 cells were obtained from ATCC. HIT cells were reported to show glucose responsiveness at subphysiological concentrations between 0.1 and 2 mM (Sharma et al., 1995). HIT cells were grown in RPMI 1640 medium supplemented with 100 units/ml penicillin, 100 μg/ml streptomycin, 2 mM glutamine and 10% fetal calf serum at 5% CO2 and 37° C. Pancreatic islets were isolated from normally fed male Wistar rats and from mice by collagenase digestion. Isolated islets were incubated overnight at 5% CO2 and 37° C. in RPMI 1640 medium, supplemented as described above. Transfection of HIT-T15 and islet cells was performed overnight by the lipofectamine technique in RPMI 1640 medium, without serum and antibiotics. For on-line monitoring, cells were grown and transfected on 24-mm glass coverslips. Following transfection, HIT cells were cultured for 12-18 h in RPMI 1640 medium containing 0.1 mM glucose, 10% fetal calf serum and supplemented as above. Before stimulation, islets and islet cells were incubated for 2 h in RPMI 1640 medium, supplemented as above but containing 3 mM glucose. All expression constructs were prepared using the Qiagen Plasmid Maxi Kit (Qiagen), except those used to produce the adenoviruses which where purified by ultracentrifugation via a CsCI-gradient (as described in Sambrook et al, 1989).
All experiments were performed in RPMI 1640 medium, supplemented as above. Protein kinase inhibitors, antibodies or nifedipine were added to the culture medium 30 min prior to stimulation and were kept in the medium throughout stimulation. After stimulation islets, islet cells and HIT cells were cultured further at substimulatory glucose concentrations (0.1 mM for HIT cells and 3 mM for islets and islet cells). For RNA-analysis, islets and cells were harvested 60 min after start of stimulation, if not indicated otherwise. For analysis of protein kinase activities or tyrosine phosphorylation, cells were harvested immediately following stimulation.
Detection of fluorescence by digital imaging fluorescence microscopy was performed as described previously (Leibiger et al., 1998a; Leibiger et al., 1998b). Briefly, transfected cells were grown on 24-mm glass coverslips. After stimulation the coverslips were placed into a perifusion chamber which was mounted on an inverted microscope (Zeiss Axiovert 135TV). Temperature was kept at 37° C. and the cells were perfused with RPMI 1640 medium. The objective lens used was a Zeiss-Fluar ×40/1.30 oil Imm Korr. Fluorescence imaging was performed with a cooled charged-coupled device camera (CH250 with KAF 1400, Photometrics, Tucson, Ariz.) connected to an imaging system (Inovision) with fluorescence excitation from a SPEX fluorolog-2 CM1T11I spectrofluorometer (Spex Industries). The following filter-settings were used: for GFPs65T: excitation at 485 nm, a 505 nm dicroic mirror and an emission band-pass filter of 500-530 nm; for DsRed: excitation at 558 nm, a 565 nm dicroic mirror and a 580 nm long-pass filter for emission […]

Compound	effect of inhibitor on insulin-stimulated insulin gene transcription / insulin promoter activity (5 mU/ml insulin)	insulin promoter-driven DsRed fluorescence upon insulin stimulation (5 mU/ml insulin, co-transfected cells)	amount of exogenous insulin necessary to trigger insulin gene promoter activity (transfected HIT-T15 cells, supplemented culture medium (FIG. 4B))
autocamtide-2 related inhibitory peptide	abolished	–	–
CC(=O)OCOC(c1ccc2ccccc2c1)P(=O)(OCOC(C)=O)OCOC(C)=O (stereo not shown) [HNMPA-(AM)3]	abolished	–	–
insulin	–	elevation	5-10 μU insulin per ml
